Holding throughout (assay type): cell-based
The test system of one test is CASKI. Kind of test: Cell proliferation Ex.3. Conditions: Homo sapiens, Ca-Ski. How it is done: (§1) A dose response relationship on cell proliferation was assessed for Compound 13 on 140 tumor cell lines. […] Cells were cultured in the appropriate media. For the assays, cells were seeded in white cell culture-treated flat and clear bottom multiwell plates and incubated at 37° C. overnight before compound was added. […] dependent on the medium, cell plates were equilibrated to room temperature for one hour, CellTiterGlo reagent (Promega) was added and luminescence was measured approximately an hour later using a luminometer. Raw data were converted into percent cell viability relative to the high and low control, which were set to 10000 and 000, respectively.

Another test has as its system MINO. Description: Cell proliferation Ex.3. As to conditions: Homo sapiens. How it is done: as §1
The test system of another test is SKNSH. Description: Cell proliferation Ex.3. Conditions: Homo sapiens, SK-N-SH. How it is done: as §1
The next test concerns SCLC-21H. Description: Cell proliferation CellTiterGlo Ex.2. As to conditions: Homo sapiens; SCLC-21H (Lung), 72 h. How it is done: (§2) A dose response relationship on cell proliferation was assessed for Compound 13 on 140 tumor cell lines. Briefly, compound treatment of cells started one day after seeding with a final DMSO concentration of 0.100, and was performed by nanodrop-dispensing using a Tecan Dispenser. 0.10% DMSO (solvent) and Staurosporine (10 μM) served as high control (10000 viability) and low control (000 viability), respectively. Compound 13 was tested at 10, 3, 1, 0.3, 0.1, 0.03, 0.01, and 0.003 μM.
(§3) Cells were cultured in the appropriate media. For the assays, cells were seeded in white cell culture-treated flat and clear bottom multiwell plates and incubated at 37° C. overnight before compound was added. After incubation for 72 h at 37° C. at 5% or 10% CO2 dependent on the medium, cell plates were equilibrated to room temperature for one hour, CellTiterGlo reagent (Promega) was added and luminescence was measured approximately an hour later using a luminometer.
(§4) Raw data were converted into percent cell viability relative to the high and low control, which were set to 10000 and 000, respectively.
For orientation: ATP-based viability assays read luminescence as a measure of living cells.

For the next test, the system named is OCI-AML3. Kind of test: Cell proliferation CellTiterGlo Ex.2. Conditions: Homo sapiens, OCI-AML-3; OCI-AML3 (Blood), 72 h. How it is done:
as §2, §3, §4

The next test has as its system Jurkat. Description: Cell proliferation CellTiterGlo Ex.2. Conditions: Homo sapiens; Jurkat (Blood), 72 h. How it is done: as §2, §3, §4
In a further test the test system is LP-1. Kind of test: Cell proliferation CellTiterGlo Ex.2. Conditions: Homo sapiens; LP-1 (Blood), 72 h. How it is done:
as §2, §3, §4

The test system of the next test is A498. Kind of test: Cell proliferation CellTiterGlo Ex.2. As to conditions: Homo sapiens; A498 (Kidney), 72 h. How it is done:
as §2, §3, §4

For another test, the system named is SiHa. Description: Cell proliferation CellTiterGlo Ex.2. As to conditions: Homo sapiens; SiHa (Cervix), 72 h. How it is done: as §2, §3, §4
The test system of another test is EFO-27. Kind of test: Cell proliferation CellTiterGlo Ex.2. Conditions: Homo sapiens; EFO-27 (Ovary), 72 h. How it is done:
as §2, §3, §4

The subject of a further test is U118MG. Kind of test: Cell proliferation CellTiterGlo Ex.2. Conditions: Homo sapiens, U-118-MG; U118MG (Brain), 72 h. How it is done: as §2, §3, §4
A further test has as its system KG-1 a. Description: Cell proliferation CellTiterGlo Ex.2. As to conditions: Homo sapiens; KG-1 a (Blood), 72 h. How it is done: as §2, §3, §4
Another test relates to SW-1783. Kind of test: Cell proliferation CellTiterGlo Ex.2. As to conditions: Homo sapiens, SW1783; SW-1783 (Brain), 72 h. How it is done:
as §2, §3, §4

The next test relates to NCI-H1838. Kind of test: Cell proliferation CellTiterGlo Ex.2. As to conditions: Homo sapiens; NCI-H1838 (Lung), 72 h. How it is done:
as §2, §3, §4

The next test has as its system NCI-H292. Kind of test: Cell proliferation CellTiterGlo Ex.2. As to conditions: Homo sapiens; NCI-H292 (Lung), 72 h. How it is done: as §2, §3, §4
A further test deals with Calu-6. Kind of test: Cell proliferation CellTiterGlo Ex.2. As to conditions: Homo sapiens; Calu-6 (Lung), 72 h. How it is done: as §2, §3, §4
A further test concerns NCI-N87. Description: Cell proliferation CellTiterGlo Ex.2. As to conditions: Homo sapiens; NCI-N87 (Stomach), 72 h. How it is done:
as §2, §3, §4

Another test has as its system MEC-1. Kind of test: Cell proliferation CellTiterGlo Ex.2. As to conditions: Homo sapiens, MEC1; MEC-1 (Blood), 72 h. How it is done:
as §2, §3, §4

Another test has as its system HCC38. Kind of test: Cell proliferation CellTiterGlo Ex.2. Conditions: Homo sapiens; HCC38 (Breast), 72 h. How it is done:
as §2, §3, §4

The subject of the next test is H460. Description: Cell proliferation CellTiterGlo Ex.2. Conditions: Homo sapiens, NCI-H460; H460 (Lung), 72 h. How it is done:
as §2, §3, §4

The next test deals with SNU-216. Description: Cell proliferation CellTiterGlo Ex.2. As to conditions: SNU-216 (Stomach), 72 h. How it is done: as §2, §3, §4
The next test deals with ZR-75-1. Description: Cell proliferation CellTiterGlo Ex.2. As to conditions: Homo sapiens; ZR-75-1 (Breast), 72 h. How it is done: as §2, §3, §4
The subject of the next test is U-266. Description: Cell proliferation CellTiterGlo Ex.2. Conditions: Homo sapiens; U-266 (Blood), 72 h. How it is done: as §2, §3, §4
Another test relates to SNU-1. Description: Cell proliferation CellTiterGlo Ex.2. As to conditions: Homo sapiens, SNU1; SNU-1 (Stomach), 72 h. How it is done:
as §2, §3, §4

In another test the test system is JVM-3. Kind of test: Cell proliferation CellTiterGlo Ex.2. As to conditions: Homo sapiens; JVM-3 (Blood), 72 h. How it is done: as §2, §3, §4
The subject of a further test is SCH. Kind of test: Cell proliferation CellTiterGlo Ex.2. As to conditions: SCH (Stomach), 72 h. How it is done:
as §2, §3, §4

The next test deals with LnCap. Kind of test: Cell proliferation CellTiterGlo Ex.2. As to conditions: Homo sapiens; LnCap (Prostate), 72 h. How it is done:
as §2, §3, §4

The subject of a further test is MKN-45. Description: Cell proliferation CellTiterGlo Ex.2. As to conditions: Homo sapiens; MKN-45 (Stomach), 72 h. How it is done: as §2, §3, §4
A further test has as its system OPM-2. Kind of test: Cell proliferation CellTiterGlo Ex.2. Conditions: Homo sapiens; OPM-2 (Blood), 72 h. How it is done:
as §2, §3, §4

Another test relates to HCC827. Kind of test: Cell proliferation CellTiterGlo Ex.2. Conditions: Homo sapiens; HCC827 (Lung), 72 h. How it is done: as §2, §3, §4

The text below walks through data of patent US20230293526A1, “METHOD FOR TREATING CANCER WITH A REVERSE TRANSCRIPTASE INHIBITOR” (PrimeFour Therapeutics, Inc., priority 2020, published 2023).

For orientation: IC50 means the concentration needed to halve the response being measured. Low values mean greater potency in that assay, high ones weaker potency in that assay.

The structures appear in SMILES notation.

`C#C[C@]1(CO)O[C@@H](n2cc(F)c(N)nc2=O)C[C@@H]1O` [compound 9]: the IC50 is above 10 µM in the test with CASKI (72 h); above 10 µM in the test with CASKI (120 h); above 10 µM in the test with CASKI (168 h); 0.34 µM in the test on MINO (72 h); 0.049 µM in the test on MINO (120 h); 0.065 µM in the test with MINO (168 h). Also, the IC50 in the test with SKNSH (72 h), with SKNSH (120 h) and with SKNSH (168 h) was above 10 µM each time.

For `C#C[C@]1(CO)O[C@@H](n2cnc3c(=O)[nH]c(N)nc32)C[C@@H]1O` [compound 13], the IC50 with SCLC-21H is 6.78 µM; in the test on OCI-AML3, 7.15 µM; in the test with Jurkat, 1.17 µM; with LP-1, 3.15 µM; with A498, above 10 µM; in the test on SiHa it was 2.45 µM. Further, the concentration for half-maximal inhibition (IC50) stood at 9.9 µM in the test with EFO-27; 5.74 µM in the test on U118MG; 5.86 µM in the test with KG-1 a; 2.25 µM with SW-1783; 7.53 µM in the test on NCI-H1838; 8.56 µM in the test on NCI-H292. The 50% inhibitory concentration (IC50) in the test with Calu-6 is above 10 µM; in the test with NCI-N87, 3.6 µM; with MEC-1, 9.85 µM; in the test with HCC38 it was 6.37 µM; with H460 it was 5.68 µM; in the test on SNU-216, 1.74 µM. In addition, the IC50 is above 10 µM in the test with ZR-75-1; above 10 µM in the test with U-266; 2.89 µM in the test on SNU-1; 2.45 µM with JVM-3; 0.29 µM in the test with SCH; above 10 µM in the test with LnCap. Further, the concentration for half-maximal inhibition (IC50) with MKN-45 was above 10 µM; in the test with OPM-2, above 10 µM; with HCC827, 4.47 µM.
